Data: article PMC9441601, “Aspergillus oryzae accelerates the conversion of ergosterol to ergosterol peroxide by efficiently utilizing cholesterol” (Frontiers in Genetics, 2022)

What follows are compounds tested against T1, Osh3 (Aspergillus oryzae, UniProt Q2U562) (assay: microscale thermophoresis (MST), purified fluorescently labelled Osh3). Conditions: not given.
T1 construct: gene AO090020000057
Format: binding

T1 sequence (Q2U562 entry or part of it): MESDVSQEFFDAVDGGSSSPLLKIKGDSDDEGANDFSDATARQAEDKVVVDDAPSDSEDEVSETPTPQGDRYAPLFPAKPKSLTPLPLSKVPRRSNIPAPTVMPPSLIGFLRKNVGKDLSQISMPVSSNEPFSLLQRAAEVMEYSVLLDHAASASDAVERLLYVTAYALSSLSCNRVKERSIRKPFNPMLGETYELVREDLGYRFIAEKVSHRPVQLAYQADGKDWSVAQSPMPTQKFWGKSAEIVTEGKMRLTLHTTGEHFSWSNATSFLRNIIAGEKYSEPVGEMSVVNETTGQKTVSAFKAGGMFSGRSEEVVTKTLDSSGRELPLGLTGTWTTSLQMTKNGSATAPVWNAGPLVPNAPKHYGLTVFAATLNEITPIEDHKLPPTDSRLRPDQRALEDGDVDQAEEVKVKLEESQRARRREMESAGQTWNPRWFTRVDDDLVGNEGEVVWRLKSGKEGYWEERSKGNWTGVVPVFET

Compound	Kd
CC(C)[C@H](C)CC[C@@H](C)[C@H]1CC[C@H]2[C@@H]3CC=C4C[C@@H](O)CC[C@]4(C)[C@H]3CC[C@]12C [campesterol]	0.339 ± 0.0781 µM
CC[C@H](/C=C/[C@@H](C)[C@H]1CC[C@H]2[C@@H]3CC=C4C[C@@H](O)CC[C@]4(C)[C@H]3CC[C@]12C)C(C)C [stigmasterol]	0.001 ± 0.0008 µM
CC[C@H](CC[C@@H](C)[C@H]1CC[C@H]2[C@@H]3CC=C4C[C@@H](O)CC[C@]4(C)[C@H]3CC[C@]12C)C(C)C [β-sitosterol]	0.0658 ± 0.0246 µM

Same assay, conditions: read-out: Kd

Compound	Kd
CC(C)CCC[C@@H](C)[C@H]1CC[C@H]2[C@@H]3C(=O)C=C4C[C@@H](O)CC[C@]4(C)[C@H]3CC[C@]12C [7-ketocholesterol]	1.46 µM
C[C@H](CCCC(C)(C)O)[C@H]1CC[C@H]2[C@@H]3CC=C4C[C@@H](O)CC[C@]4(C)[C@H]3CC[C@]12C [25-hydroxycholesterol]	0.0091 ± 0.002 µM
CC(C)[C@@H](C)/C=C/[C@@H](C)[C@H]1CC[C@H]2C3=C[C@@H](O)[C@@]4(O)C[C@@H](O)CC[C@]4(C)[C@H]3CC[C@]12C [cerevisterol]	0.0034 ± 0.0013 µM
CC(C)CCC[C@@H](C)[C@H]1CC[C@H]2[C@@H]3CC=C4C[C@@H](O)CC[C@]4(C)[C@H]3CC[C@]12C [cholesterol]	0.333 ± 0.0453 µM
CC(C)[C@@H](C)/C=C/[C@@H](C)[C@H]1CC[C@@H]2[C@]1(C)CC[C@H]1[C@]23C=C[C@]2(C[C@@H](O)CC[C@]12C)OO3 [ergosterol peroxide]	0.0081 ± 0.0021 µM
CC(C)[C@@H](C)/C=C/[C@@H](C)[C@H]1CC[C@H]2C3=CC=C4C[C@@H](O)CC[C@]4(C)[C@H]3CC[C@]12C [ergosterol]	0.122 ± 0.0243 µM
